Assay results published in paper PMC6801585, “Improved In Vivo Anti-Tumor and Anti-Metastatic Effect of GnRH-III-Daunorubicin Analogs on Colorectal and Breast Carcinoma Bearing Mice” (International Journal of Molecular Sciences, 2019).
Values joined by “and” are separate entries in the source; they are usually repeats but may differ in a detail not shown here. Identical values can stand only once.

Key:
[1] = Chronic toxicity study on healthy mice; type: in vivo; details: healthy BALB/c female mice; i.p.; conjugates 15 mg/kg Dau content x5 (days 1,3,6,8,10); free Dau 1 mg/kg x2 (days 1,8); 14 days; 3 mice per group
Description: Adult female inbred BALB/c mice from a specified pathogen free (SPF) breeding of the National Institute of Oncology (Budapest, Hungary), were used in acute and chronic toxicity studies and in orthotopic 4T1 mice breast tumor model experiment. The mice were kept in a sterile environment in Makrolon® cages at 22–24 °C (40–50% humidity), with a lighting regulation of 12/12 h light/dark. The animals had free access to tap water and were fed with a sterilized standard diet (VRF1, autoclavable, Akronom Kft., Budapest, Hungary) ad libitum.
In order to determine the toxicity of the conjugates, in vivo acute and chronic toxicity studies were performed on healthy animals. In acute toxicity study, adult BALB/c female mice (20–23 g) were treated by a single intraperitoneal (i.p.) injection of conjugate 2, whereby different doses (3.125, 6.25, 12.5, 25 and 50 mg/kg Dau content) were administrated to each groups (three mice per group). In chronic toxicity studies, adult female BALB/c mice (23–26 g) were treated either with GnRH-III conjugates by i.p. administration with a dose of 15 mg/kg Dau content on day 1, 3, 6, 8 and 10, or with free Dau (1 mg/kg) on day 1 and 8. In case of the control group, sterile water was administered. Each group consisted of three mice. The toxicity was evaluated on the basis of life span, behavior and appearance of the mice, as well as the body weight. […]

[2] = system: MDA-MB-231 human breast carcinoma; test: Orthotopic MDA-MB-231 human breast tumor model; type: in vivo, SCID female mice
Description: Adult SCID female mice (22–28 g) were used in this experiment and kept under the same conditions, as described above. […] The treatments started 21 days after cells inoculation, when average tumor volume was 40 mm^3. Free Dau and conjugates were administrated by i.p. injection. Four groups with seven animals per group were established and treated with certain doses and schedules. The mice in the control group were treated with sterile water, while the mice in the free Dau group were treated with a dose of 1 mg/kg, once per week, on day 21, 28, 35 and 42 after cell inoculation. […] The last treatment was performed on day 42 after cell inoculation, whereby a dose of 7.5 mg/kg Dau content was applied. The animal weights and tumor volumes were measured when the treatment was initiated and at periodic intervals according to the treatment schedule. The tumor volume was calculated in the same manner as described for mice breast carcinoma. […] The mice from all groups were sacrificed by cervical dislocation and primary tumors and livers were harvested and weighed, while number of animals with metastases were counted. The anti-tumor effects of the conjugates were evaluated measuring the tumor volume and the tumor weights, while the toxicity effects of conjugates were evaluated measuring liver weights and calculating the liver weight/body weight ratio.

[3] = system: HT-29 human colon carcinoma; test: Orthotopic HT-29 human colon tumor model; type: in vivo, SCID female mice
Description: Immunodeficient, 6–8 weeks old SCID female mice (21–27 g) were used in this experiment. HT-29 colon carcinoma cells were subcutaneously injected into one side of the intrascapular region, whereby 2 × 10^6 cells were used per animal, suspended in 200 µL of M199 medium, in order to establish the xenografts with primary tumor. After two weeks, the mice with palpable tumors were sacrificed by cervical dislocation, disinfected with iodine and the subcutaneous tumor was aseptically dissected out.
The abdomen of mice was disinfected with iodine and alcohol, a small midline incision (0.5 cm) was then made and the colorectal part of the intestine was exteriorized. Serosa of the site where the tumor pieces should be implanted were removed. Tumor tissue fragments of HT-29 human colon tumor were implanted on the top of the animal intestine, whereby an 8/0 surgical (polypropylene) suture was used to suture it on the wall of the intestine. The intestine was returned to the abdominal cavity and the abdominal wall was closed with 4/0 surgical (polyglycolic acid) sutures. The wound was disinfected with iodine and alcohol again and the animals were kept in a sterile environment.
The treatments started seven days after tumor transplantation by i.p. administration of the free Dau and conjugates which were dissolved in sterile water for injection. Six mice per group were used. One group of mice was treated with free Dau at a dose of 1 mg/kg body weight on day 7, 13 and 20 after tumor transplantation. […] The control group was treated with sterile water. The experiment was terminated on day 30 after tumor transplantation (day 24 of treatment). […] The mice from all groups were sacrificed by cervical dislocation. Their tumors and livers were harvested and weighed.

WM983b = test: In vitro anti-proliferative activity (MTT assay); type: cell-based; details: Homo sapiens, WM983b (melanoma), 24 h treatment + 48 h culture, average ± SD
Description: (§1) In experimental procedures following cell lines were used, MDA-MB-231 and MCF-7 (human breast cancer), 4T1 (mice breast cancer), DU145 and PC-3 (human prostate cancer), A2780, OVCAR-3 and OVCAR-8 (human ovarian cancer), HepG2 (human liver cancer), A2058, WM983b, HT168-M1/9 and M24 (human melanoma), B16 (mice melanoma), H1975, H1650 and A549 (human lung cancer), HT-29 (human colorectal adenocarcinoma), C26 (mice colon cancer) and PANC-1 (pancreatic cancer) were cultured in RPMI 1640 Medium with glutamine (Roswell Park Memorial Institute Medium, Lonza, Basel, Switzerland). Moreover, U87MG (human malignant glioma) and MRC-5 (normal human fibroblast) were cultured in Dulbecco’s Modified Eagle’s Medium (DMEM, Lonza) and PE/CA-PJ15 and PE/CA-PJ41 (head and neck cancer) were cultured in Iscove’s Modified Dulbecco’s Medium (IMEM, Sigma Aldrich, St. Louis, MO, USA). Apart from the cell culture medium for OVCAR-3 cells, all media were supplemented with 10% heat-inactivated FBS (Fetal Bovine Serum, Euroclone, Milan, Italy) and 1% Penicillin/Streptomycin (Sigma Aldrich), while OVCAR-3 cells were cultured in 20% FBS containing RPMI medium. The cell lines were mainly obtained from ATCC, except for PE/CA-PJ15, PE/CA-PJ41 (ECACC), A2058 (kindly provided by L.A. Liotta, NCI, Bethesda, MD, USA), HT-168-M1/9 (derived from A2058), M24 (kind gift from B.M. Mueller, Scripps Research Institute, La Jolla, CA, USA) and WM983b (kindly provided by Meenhard Herlyn, Wistar Institute, Philadelphia, PA, USA). Cells were cultured in sterile T25 or T75 flasks with ventilation cap (Sarstedt, Nümbrecht, Germany) at 37 °C in a humidified atmosphere with 5% CO2.
(§2) For the evaluation of the in vitro anti-proliferative activity of the GnRH-III conjugates and free Dau, the cell viability was determined by MTT assay (3-(4,5-dimethylthiazol-2-yl)-2,5-diphenyl-tetrazolium bromide) that was obtained from Sigma Aldrich. After standard harvesting of the cells by trypsin-EDTA (Lonza), 4 × 10^3 till 10 × 10^3 cells per well depending on cell line, were seeded in serum containing growth medium to 96-well plates (Sarstedt) and incubated. After 24 h, the growth medium was removed and cells were treated with various concentrations of conjugates 1 and 2 (32 nM–100 µM) or free Dau (0.1 nM–10 µM), dissolved in serum free medium and incubated for 24 h under standard conditions. The control wells were treated with serum free medium. After 24 h of treatment, the cells were washed twice with serum free medium and then cultured in serum containing medium for an additional 48 h. Afterward, the MTT assay was performed, in order to determine cell viability, by adding 20 µL of MTT solution (5 mg/mL in PBS) to each well and after 2 h of incubation at 37 °C, the supernatant was removed. The formazan crystals were dissolved in 100 µL of a 1:1 solution of DMSO (Sigma Aldrich):EtOH (Molar Chemicals Kft., Halásztelek, Hungary) and the absorbance was measured after 15 min. at λ = 570 nm by using a microplate reader (Bio-Rad, model 550, Hercules, CA, USA). The IC50 values of the conjugates and free drug were calculated while using GraphPad Prism 6 (GraphPad Software, San Diego, CA, USA). The experiments were done in triplicate and each experiment was repeated twice.

DU145 = test: In vitro anti-proliferative activity (MTT assay); type: cell-based; details: Homo sapiens, DU-145, DU145 (prostate), 24 h treatment + 48 h culture, average ± SD
Description: as §1, §2

PANC-1 = test: In vitro anti-proliferative activity (MTT assay); type: cell-based; details: Homo sapiens, PANC-1 (pancreas), 24 h treatment + 48 h culture, average ± SD
Description: as §1, §2

A2780 = test: In vitro anti-proliferative activity (MTT assay); type: cell-based; details: Homo sapiens, A2780 (ovarian), 24 h treatment + 48 h culture, average ± SD
Description: as §1, §2

HepG2 = test: In vitro anti-proliferative activity (MTT assay); type: cell-based; details: Homo sapiens, HepG2 (liver), 24 h treatment + 48 h culture, average ± SD
Description: as §1, §2

4T1 = test: In vitro anti-proliferative activity (MTT assay); type: cell-based; details: Mus musculus, 4T1 (mice breast), 24 h treatment + 48 h culture, average ± SD
Description: as §1, §2

A549 = test: In vitro anti-proliferative activity (MTT assay); type: cell-based; details: Homo sapiens, A549 (lung), 24 h treatment + 48 h culture, average ± SD
Description: as §1, §2

PE/CA-PJ41 = test: In vitro anti-proliferative activity (MTT assay); type: cell-based; details: PE/CA-PJ41 (head and neck), 24 h treatment + 48 h culture, average ± SD
Description: as §1, §2

H1650 = test: In vitro anti-proliferative activity (MTT assay); type: cell-based; details: Homo sapiens, NCI-H1650, H1650 (lung), 24 h treatment + 48 h culture, average ± SD
Description: as §1, §2

U87MG = test: In vitro anti-proliferative activity (MTT assay); type: cell-based; details: Homo sapiens, U-87 MG, U87MG (glioblastoma), 24 h treatment + 48 h culture, average ± SD
Description: as §1, §2

A2058 = test: In vitro anti-proliferative activity (MTT assay); type: cell-based; details: Homo sapiens, A2058 (melanoma), 24 h treatment + 48 h culture, average ± SD
Description: as §1, §2

M24 = test: In vitro anti-proliferative activity (MTT assay); type: cell-based; details: Homo sapiens, M24 (melanoma), 24 h treatment + 48 h culture, average ± SD
Description: as §1, §2

PC-3 = test: In vitro anti-proliferative activity (MTT assay); type: cell-based; details: Homo sapiens, PC-3 (prostate), 24 h treatment + 48 h culture, average ± SD
Description: as §1, §2

OVCAR-3 = test: In vitro anti-proliferative activity (MTT assay); type: cell-based; details: Homo sapiens, OVCAR-3 (ovarian), 24 h treatment + 48 h culture, average ± SD
Description: as §1, §2

MRC-5 = test: In vitro anti-proliferative activity (MTT assay); type: cell-based; details: Homo sapiens, MRC5, MRC-5 (normal fibroblast), 24 h treatment + 48 h culture, average ± SD
Description: as §1, §2

C26 = test: In vitro anti-proliferative activity (MTT assay); type: cell-based; details: Mus musculus, C26 (mice colon), 24 h treatment + 48 h culture, average ± SD
Description: as §1, §2

MDA-MB-231 = test: In vitro anti-proliferative activity (MTT assay); type: cell-based; details: Homo sapiens, MDA-MB-231 (breast), 24 h treatment + 48 h culture, average ± SD
Description: as §1, §2

PE/CA-PJ15 = test: In vitro anti-proliferative activity (MTT assay); type: cell-based; details: PE/CA-PJ15 (head and neck), 24 h treatment + 48 h culture, average ± SD
Description: as §1, §2

B16 = test: In vitro anti-proliferative activity (MTT assay); type: cell-based; details: Mus musculus, B16 (mice melanoma), 24 h treatment + 48 h culture, average ± SD
Description: as §1, §2

H1975 = test: In vitro anti-proliferative activity (MTT assay); type: cell-based; details: Homo sapiens, NCI-H1975, H1975 (lung), 24 h treatment + 48 h culture, average ± SD
Description: as §1, §2

MCF-7 = test: In vitro anti-proliferative activity (MTT assay); type: cell-based; details: Homo sapiens, MCF7, MCF-7 (breast), 24 h treatment + 48 h culture, average ± SD
Description: as §1, §2

HT-29 = test: In vitro anti-proliferative activity (MTT assay); type: cell-based; details: Homo sapiens, HT-29 (colon), 24 h treatment + 48 h culture, average ± SD
Description: as §1, §2

HT168-M1/9 = test: In vitro anti-proliferative activity (MTT assay); type: cell-based; details: Homo sapiens, HT168-M1/9 (melanoma), 24 h treatment + 48 h culture, average ± SD
Description: as §1, §2

OVCAR-8 = test: In vitro anti-proliferative activity (MTT assay); type: cell-based; details: Homo sapiens, OVCAR-8 (ovarian), 24 h treatment + 48 h culture, average ± SD
Description: as §1, §2

[4] = system: 4T1 mice breast carcinoma; test: Orthotopic 4T1 mice breast tumor model; type: in vivo, BALB/c female mice
Description: Adult BALB/c female mice (20–25 g) were used in this experiment and kept under the same conditions, as described above. 4T1 mice breast carcinoma cells, maintained as described above, were orthotopically injected into the lower quarter of the right mammary fat pad line of mice, whereby 1 × 10^6 cells were used per animal, suspended in 50 µL M199 medium (Sigma Aldrich). The treatment started seven days after cells inoculation, when the average tumor volume was 38 mm^3, by i.p. administration of the conjugates or free Dau. Four groups with seven animals per group were established and treated with certain doses and schedules. The mice in the control group were treated with sterile water, while mice in free Dau group were treated with a dose of 1 mg/kg, once per week, on days 7, 14 and 21 after cells inoculation. […] Animal weight and tumor volumes were measured initially when the treatment started and at periodic intervals according to the treatment schedule. A digital caliper was used to measure the longest (a) and the shortest diameter (b) of a given tumor. The tumor volume was calculated while using the formula V = ab^2 × π/6, whereby a and b represent the measured parameters (length and width). The termination of the experiment was initiated 28 days after cell inoculation, respectively 22 days after treatment start, since the average volume of the tumors in the control group reached 1800 mm^3. The mice from all groups were sacrificed by cervical dislocation. The anti-tumor effects and the liver toxicity of the conjugates and free Dau were evaluated based on the tumor volume and the liver weight/body weight ratio in each group. Moreover, the anti-proliferative and anti-metastatic activity of the conjugates and free Dau was evaluated in primary tumor and in metastases on the peripheral organs.
The routinely formalin-fixed tumors were dehydrated in a graded series of ethanol, infiltrated with xylene and embedded into paraffin at a temperature not exceeding 60 °C. Two micron thick sections were mounted on Superfrost slides (Thermo Shandon, Runcorn, UK) and then manually deparaffinized. To block endogenous peroxidase activity, slides were treated for 20 min. at r.t. with 3% H2O2 in methanol. The slides were immersed in 6% citrate buffer (pH = 6) and exposed to 98 °C water bath for 40 min. […] After washing, secondary antibody Biotinylated Link (Dako) was applied for 10 min. at r.t. For visualization, supersensitive one step polymer HRP (Biogenex, Fremont, CA, USA) was used with 3-amino-9-ethylcarbazole (AEC) as chromogen. Staining without the primary antibody served as the negative control.
Liver, spleen, lung and kidneys were harvested and fixed in formalin. All of the visible macro-metastatic lesions of the peripheral organs of seven animals from the control and treated groups on a stereo microscope Kruss MSZ5600 (Kruss Optronic, Hamburg, Germany) under 7–45-fold magnification were counted. The percentages of macro-metastatic lesions in the treated groups compared to the control group was calculated.
Proliferation marker stained samples were evaluated on light microscope Olympus BH-2 microscope (Olympus, Tokyo, Japan). […] The proliferation index was calculated as percentage of KI-67 positive cells from all cells in the field of view.

[5] = SCID mice, i.p., 1 and 2 15 mg/kg Dau content x6 + 7.5 mg/kg x1, free Dau 1 mg/kg x4, day 45, 7 per group
[6] = SCID mice, i.p., 1 and 2 10 mg/kg Dau content x7, end day 30, free Dau 1 mg/kg x3, end day 23, 6 per group
[7] = vs control, 1 and 2 10 mg/kg Dau content x6, free Dau 1 mg/kg x3, day 28, 7 animals

SMILES: COc1cccc2c1C(=O)c1c(O)c3c(c(O)c1C2=O)C[C@@](O)(C(C)=O)C[C@@H]3O[C@H]1C[C@H](N)[C@H](O)[C@H](C)O1 [Dau, daunorubicin]
- Chronic toxicity: body weight, general looking and behavior [1]: could not observe a significant change in body weight
- Decrease of liver/body weight ratio compared to control ([2]; 1 and 2 15 mg/kg Dau content x6 + 7.5 mg/kg x1, free Dau 1 mg/kg x4, day 45): 16.8%
- Decrease of body weight at the end of experiment compared to the beginning [2, 5]: 20%
- Inhibition of tumor volume compared to control [2, 5]: 46.3% and 46%
- Inhibition of tumor weight [2, 5]: 40.1%
- Number of mice with metastases close to the primary tumor ([2]; end of experiment day 45, control 5/5): four out of seven and 4/7 and 4/7 ^2
- Decrease of liver/body weight ratio compared to control ([3]; 1 and 2 10 mg/kg Dau content x7, day 30, free Dau 1 mg/kg x3, day 23): 29.4%
- Animal body weight at the end of experiment compared to the start [3, 6]: significantly decreased
- Reduction of tumor weight compared to control [3, 6]: 84.3% and 84%
- IC50 (WM983b): 49.8 ± 22.9 nM
- IC50 (DU145): 16.3 ± 4.6 nM
- IC50 (PANC-1): 526 ± 24.7 nM
- IC50 (A2780): 10.4 ± 1.6 nM
- IC50 (HepG2): 22.9 ± 1.4 nM
- IC50 (4T1): 56 ± 14.7 nM
- IC50 (A549): 69.3 ± 23.5 nM
- IC50 (PE/CA-PJ41): 45.6 ± 33.5 nM
- IC50 (H1650): 50.3 ± 13.4 nM
- IC50 (U87MG): 126 ± 53.7 nM
- IC50 (A2058): 35.1 ± 14.9 nM
- IC50 (M24): 119 ± 25 nM
- IC50 (PC-3): 32.7 ± 4.7 nM
- IC50 (OVCAR-3): 404 ± 9.4 nM
- IC50 (MRC-5): 288 ± 35.1 nM
- IC50 (C26): 118 ± 8.6 nM
- IC50 (MDA-MB-231): 54.6 ± 7.4 nM
- IC50 (PE/CA-PJ15): 50.5 ± 38.7 nM
- IC50 (B16): 26 ± 8 nM
- IC50 (H1975): 20.9 ± 2.7 nM
- IC50 (MCF-7): 63.9 ± 21 nM
- IC50 (HT-29): 202.9 ± 1 nM
- IC50 (HT168-M1/9): 27.5 ± 9.1 nM
- IC50 (OVCAR-8): 186 ± 99.8 nM
- Decrease of liver/body weight ratio compared to control ([4]; 1 and 2 10 mg/kg Dau content x6, free Dau 1 mg/kg x3, day 28): 9.8%
- Animal body weight at the end of experiment compared to the start ([4]; BALB/c mice, i.p., 1 and 2 10 mg/kg Dau content x6, free Dau 1 mg/kg x3, day 28, 7 per group): slightly decreased
- Inhibition of proliferation index of lung metastases ([4]; KI-67, vs control, 1 and 2 10 mg/kg Dau content x6, free Dau 1 mg/kg x3): 27.8% and 28%
- Decrease of proliferation index in primary tumor compared to control ([4]; KI-67 positive cells, 400x, 1 and 2 10 mg/kg Dau content x6, free Dau 1 mg/kg x3, day 28): 19%
- Inhibition of number of micro-metastases in the lung compared to control ([4]; KI-67 stained, per field of view 100x, 1 and 2 10 mg/kg Dau content x6, free Dau 1 mg/kg x3): 33.7% and 34%
- Decrease of spleen weight compared to control ([4]; day 28, 7 per group, Figure S2): 27.2%
- Decrease of number of macro-metastases in lung [4, 7]: 55.4%
- Decrease of number of macro-metastases in spleen [4, 7]: 64.3%
